Measured values as given in patent US9504669B2, “Spliceostatin analogs and methods for their preparation” (PFIZER INC., priority 2012, dated 2016).
Like-named read-outs stand apart in the source and are kept apart here.

How the values were obtained:
Assay type in all cases: cell-based
[1] = tested on: BT474 (breast cancer) cells; assay: In vitro cell assay (MTS cell viability), BT474; details: Homo sapiens, BT-474; free compounds (natural products and synthetic analogs); cell viability 96 hours after treatment
How it was run: (§1)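 Cells seeded 24 h, then treated with antibody-drug conjugates or free drug, 3-fold serial dilutions at 10 concentrations in duplicate. Viability by MTS at 96 h as percent of untreated control; IC50 from four-parameter logistic fit.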

[2] = tested on: MDA-MB-361-DYT2 (breast cancer) cells; assay: In vitro cell assay (MTS cell viability), MDA-MB-361-DYT2; details: free compounds (natural products and synthetic analogs), cell viability 96 hours after treatment
How it was run: as §1

[3] = tested on: N87 (gastric cancer) cells; assay: In vitro cell assay (MTS cell viability), N87; details: free compounds (natural products and synthetic analogs), cell viability 96 hours after treatment
How it was run: as §1

[4] = tested on: MDA-MB-468 cells (target non-expressing); assay: In vitro cell assay (MTS cell viability), MDA-MB-468; details: Homo sapiens
Method: Target expressing (BT474 (breast cancer), N87 (gastric cancer), HCC1954 (breast cancer), MDA-MB-361-DYT2 (breast cancer)) or non-expressing (MDA-MB-468) cells were seeded in 96-well cell culture plates for 24 hours before treatment. Cells were treated with 3-fold serially diluted antibody-drug conjugates or free compounds (i.e., no antibody conjugated to the drug) in duplicate at 10 concentrations. Cell viability was determined by CellTiter 96® AQueous One Solution Cell Proliferation MTS Assay (Promega, Madison Wis.) 96 hours after treatment. Relative cell viability was determined as percentage of untreated control. IC50 values were calculated using a four parameter logistic model #203 with XLfit v4.2 (IDBS, Guildford, Surry, UK). The potency ranged upward from 0.0002 nm. Similar procedures and techniques were employed.

[5] = MDA-MB-468, 96 h, read-out: MDA-MB-468 IC50 (nM)

Row | SMILES | IC50 [1] [nM] | IC50 ([2]; 96 h) [nM] | IC50 ([3]; 96 h) [nM] | IC50 [4, 5] [nM] | IC50 [2] [nM] | IC50 [3] [nM] | IC50 ([4]; MDA-MB-468, free compounds (natural products and synthetic analogs), cell viability 96 hours after treatment, read-out: MDA-MB-468 IC50) [nM]
1 | CC(=O)O[C@@H](C)/C=C\C(=O)N[C@@H]1C[C@H](C)[C@H](C/C=C(C)/C=C/[C@@H]2CC(C)=CC(=O)O2)O[C@@H]1C [#NP11, (2S,3Z)-5-{[(2R,3R,5S,6S)-2,5-dimethyl-6-{(2E,4E)-3-methyl-5-[(2S)-4-methyl-6-oxo-3,6-dihydro-2H-pyran-2-yl]penta-2,4-dien-1-yl}tetrahydro-2H-pyran-3-yl]amino}-5-oxopent-3-en-2-yl acetate] | 3.72 | 4.16 | 3.67 | 1.55 |  |  | 
2 | CC(=O)O[C@@H](C)/C=C\C(=O)N[C@@H]1C[C@H](C)[C@H](C/C=C(C)/C=C/[C@@H]2C[C@]3(CO3)C[C@@H](CC(=O)O)O2)O[C@@H]1C [#NP2, [(3S,5S,7S)-7-{(1E,3E)-5-[(2S,3S,5R,6R)-5-{[(2Z,4S)-4-(acetyloxy)pent-2-enoyl]amino}-3,6-dimethyltetrahydro-2H-pyran-2-yl]-3-methylpenta-1,3-dien-1-yl}-1,6-dioxaspiro[2.5]oct-5-yl]acetic acid] | 5.12 |  |  |  | 8.5 | 2.51 | 3.39
3 | CC(/C=C/[C@@H]1C[C@]2(CO2)C[C@@H](CC(=O)O)O1)=C\C[C@@H]1O[C@H](C)[C@H](NC(=O)/C=C\[C@H](C)O)C[C@@H]1C [#B16, [(3S,5S,7S)-7-{(1E,3E)-5-[(2S,3S,5R,6R)-5-{[(2Z,4S)-4-hydroxypent-2-enoyl]amino}-3,6-dimethyltetrahydro-2H-pyran-2-yl]-3-methylpenta-1,3-dien-1-yl}-1,6-dioxaspiro[2.5]oct-5-yl]acetic acid] | 76.1 | > 100 | 16.8 | 36.8 |  |  | 
4 | CCCC(=O)NC[C@@H]1C[C@@]2(CO2)C[C@@H](/C=C/C(C)=C/C[C@@H]2O[C@H](C)[C@H](NC(=O)/C=C\[C@H](C)OC(C)=O)C[C@@H]2C)O1 [#B173, (2S,3Z)-5-({(2R,3R,5S,6S)-6-[(2E,4E)-5-{(3R,5S,7S)-7-[(butanoylamino)methyl]-1,6-dioxaspiro[2.5]oct-5-yl}-3-methylpenta-2,4-dien-1-yl]-2,5-dimethyltetrahydro-2H-pyran-3-yl}amino)-5-oxopent-3-en-2-yl acetate] | 3.64 | 29.1 | 6.38 | 7.85 |  |  | 
5 | CC(=O)O[C@@H](C)/C=C\C(=O)N[C@@H]1C[C@H](C)[C@H](C/C=C(C)/C=C/[C@H]2O[C@H](CC(=O)NN)C[C@@]3(CO3)[C@@H]2O)O[C@@H]1C [#B6, (2S,3Z)-5-{[(2R,3R,5S,6S)-6-{(2E,4E)-5-[(3R,4R,5R,7S)-7-(2-hydrazinyl-2-oxoethyl)-4-hydroxy-1,6-dioxaspiro[2.5]oct-5-yl]-3-methylpenta-2,4-dien-1-yl}-2,5-dimethyltetrahydro-2H-pyran-3-yl]amino}-5-oxopent-3-en-2-yl acetate] | 16.5 | 25.4 | 5.66 | 7.97 |  |  | 
6 | CC(=O)O[C@@H](C)/C=C\C(=O)N[C@@H]1C[C@H](C)[C@H](C/C=C(C)/C=C/[C@H]2OC(C)(O)C(O)C(O)(CO)C2O)O[C@@H]1C (stereo partly drawn) [#NP6, (6R)-6-{(1E,3E)-5-[(2S,3S,5R,6R)-5-{[(2Z,4S)-4-(acetyloxy)pent-2-enoyl]amino}-3,6-dimethyltetrahydro-2H-pyran-2-yl]-3-methylpenta-1,3-dien-1-yl}-1-deoxy-4-C-(hydroxymethyl)hex-2-ulopyranose] | > 100 |  | > 100 | > 100 |  |  | 
7 | COC(=O)C[C@@H]1C[C@@]2(CO2)C[C@@H](/C=C/C(C)=C/C[C@@H]2O[C@H](C)[C@H](NC(=O)/C=C\[C@H](C)O)C[C@@H]2C)O1 [#B148, methyl [(3S,5S,7S)-7-{(1E,3E)-5-[(2S,3S,5R,6R)-5-{[(2Z,4S)-4-hydroxypent-2-enoyl]amino}-3,6-dimethyltetrahydro-2H-pyran-2-yl]-3-methylpenta-1,3-dien-1-yl}-1,6-dioxaspiro[2.5]oct-5-yl]acetate] | 40.8 | > 100 | 47.4 | 64.4 |  |  | 
8 | CC(=O)O[C@@H](C)/C=C\C(=O)N[C@@H]1C[C@H](C)[C@H](C/C=C(C)/C=C/[C@@H]2C[C@]3(CO3)C[C@@H](CC(N)=O)O2)O[C@@H]1C [#B15, (2S,3Z)-5-{[(2R,3R,5S,6S)-6-{(2E,4E)-5-[(3S,5S,7S)-7-(2-amino-2-oxoethyl)-1,6-dioxaspiro[2.5]oct-5-yl]-3-methylpenta-2,4-dien-1-yl}-2,5-dimethyltetrahydro-2H-pyran-3-yl]amino}-5-oxopent-3-en-2-yl acetate] | 0.522 | 0.537 | 0.203 | 0.363 |  |  | 
9 | CCCNC(=O)C(C)(C)NC(=O)C[C@@H]1C[C@@]2(CO2)[C@H](O)[C@@H](/C=C/C(C)=C/C[C@@H]2O[C@H](C)[C@H](NC(=O)/C=C\[C@H](C)OC(C)=O)C[C@@H]2C)O1 [#B81, (2S,3Z)-5-{[(2R,3R,5S,6S)-6-{(2E,4E)-5-[(3R,4R,5R,7S)-4-hydroxy-7-(2-{[2-methyl-1-oxo-1-(propylamino)propan-2-yl]amino}-2-oxoethyl)-1,6-dioxaspiro[2.5]oct-5-yl]-3-methylpenta-2,4-dien-1-yl}-2,5-dimethyltetrahydro-2H-pyran-3-yl]amino}-5-oxopent-3-en-2-yl acetate] | > 100 | > 100 | 70.7 | > 100 |  |  | 
10 | CC(=O)OCC1(O)C(O)C(/C=C/C(C)=C/C[C@@H]2O[C@H](C)[C@H](NC(=O)/C=C\[C@H](C)OC(C)=O)C[C@@H]2C)OC(C)(O)C1O (stereo partly drawn) [#NP9, 4-C-[(acetyloxy)methyl]-6-{(1E,3E)-5-[(2S,3S,5R,6R)-5-{[(2Z,4S)-4-(acetyloxy)pent-2-enoyl]amino}-3,6-dimethyltetrahydro-2H-pyran-2-yl]-3-methylpenta-1,3-dien-1-yl}-1-deoxyhex-2-ulopyranose] | 65.8 |  | 74.3 | 59.2 |  |  | 
11 | CC(/C=C/[C@H]1O[C@H](CC(=O)O)C[C@@]2(CO2)[C@@H]1O)=C\C[C@@H]1O[C@H](C)[C@H](NC(=O)/C=C\[C@H](C)O)C[C@@H]1C [#B4, [(3R,5S,7R,8R)-8-hydroxy-7-{(1E,3E)-5-[(2S,3S,5R,6R)-5-{[(2Z,4S)-4-hydroxypent-2-enoyl]amino}-3,6-dimethyltetrahydro-2H-pyran-2-yl]-3-methylpenta-1,3-dien-1-yl}-1,6-dioxaspiro[2.5]oct-5-yl]acetic acid] | > 100 | > 100 | > 100 | > 100 |  |  | 
12 | CCCNC(=O)C[C@@H]1C[C@@]2(CO2)[C@H](O)[C@@H](/C=C/C(C)=C/C[C@@H]2O[C@H](C)[C@H](NC(=O)/C=C\[C@H](C)OC(=O)N3CCCCC3)C[C@@H]2C)O1 [#B66, (2S,3Z)-5-({(2R,3R,5S,6S)-6-[(2E,4E)-5-{(3R,4R,5R,7S)-4-hydroxy-7-[2-oxo-2-(propylamino)ethyl]-1,6-dioxaspiro[2.5]oct-5-yl}-3-methylpenta-2,4-dien-1-yl]-2,5-dimethyltetrahydro-2H-pyran-3-yl}amino)-5-oxopent-3-en-2-yl piperidine-1-carboxylate] | 0.18 |  | 1.58 | 0.27 |  |  | 
13 | CC(=O)O[C@@H](C)/C=C\C(=O)N[C@@H]1C[C@H](C)[C@H](C/C=C(C)/C=C/C2CC(O)(CCl)CC(CC(=O)O)O2)O[C@@H]1C (stereo partly drawn) [#NP8, [6-{(1E,3E)-5-[(2S,3S,5R,6R)-5-{[(2Z,4S)-4-(acetyloxy)pent-2-enoyl]amino}-3,6-dimethyltetrahydro-2H-pyran-2-yl]-3-methylpenta-1,3-dien-1-yl}-4-(chloromethyl)-4-hydroxytetrahydro-2H-pyran-2-yl]acetic acid] | 1.94 |  | 0.643 | 1.35 |  |  | 
14 | CC(=O)OCC1(O)CC(/C=C/C(C)=C/C[C@@H]2O[C@H](C)[C@H](NC(=O)/C=C\[C@H](C)OC(C)=O)C[C@@H]2C)OC(CC(=O)O)C1 (stereo partly drawn) [#NP7, (4-[(acetyloxy)methyl]-6-{(1E,3E)-5-[(2S,3S,5R,6R)-5-{[(2Z,4S)-4-(acetyloxy)pent-2-enoyl]amino}-3,6-dimethyltetrahydro-2H-pyran-2-yl]-3-methylpenta-1,3-dien-1-yl}-4-hydroxytetrahydro-2H-pyran-2-yl)acetic acid] | > 100 |  | > 100 | > 100 |  |  | 
15 | CC(=O)O[C@@H](C)/C=C\C(=O)N[C@@H]1C[C@H](C)[C@H](C/C=C(C)/C=C/[C@H]2O[C@H](CC(=O)O)C[C@@](O)(CCl)[C@@H]2O)O[C@@H]1C [#NP5, (5R)-5-{(1E,3E)-5-[(2S,3S,5R,6R)-5-{[(2Z,4S)-4-(acetyloxy)pent-2-enoyl]amino}-3,6-dimethyltetrahydro-2H-pyran-2-yl]-3-methylpenta-1,3-dien-1-yl}-1,5-anhydro-1-(carboxymethyl)-3-C-(chloromethyl)-2-deoxypentitol] | > 100 |  | > 100 | > 100 |  |  | 
